# Literature values, collected in US20070218033A1, “Composition and method of treating hepatitis C” (priority 1991, published 2007).
# Read-outs that look alike come from different tables or passages of the source. Where no end group is shown, it is not given here.
# What was measured:
# HCV-related diseases = conditions: in vivo
# [1] = tested on: response to influenze vaccine; conditions: subcutaneously twice weekly
# [2] = tested on: Woodchuck Hepatitis Virus; conditions: woodchuck infected with Woodchuck Hepatitis Virus
# hepatitis B virus (HBV) = conditions: treated for a year
# [3] = tested on: natural killer-cell activity; conditions: THNα1 and interferon together; immunosuppressed mice
# [4] = tested on: nonsmall cell lung cancer
# [5] = tested on: post-transfusion NANB hepatitis
# [6] = tested on: chronic hepatitis C (NANB hepatitis)
# chronic NANB hepatitis = conditions: for proportion of patients with normal ALT levels at week 48: after treatment
# [7] = 900 μgrams/m^2 subcutaneously after radiotherapy
molecule,measurement,setting,value
Nc1nc2c(ncn2COCCO)c(=O)[nH]1 [acyclovir],effectiveness in HCV-related diseases,HCV-related diseases,ineffective
"THNα1: 28 amino acidic polypeptide, molecular weight 3100, initially isolated from TF-5, sequenced and chemically synthesized (SDAAVDTSSEITTKDLKEKKEVVEEAEN; not fully specified; ends and bridges not checked; UniProt P06454 2-29, looked up)",clinical or biochemical toxicity,[1]; drug recipients,No clinical or biochemical toxicity
same,levels of antibody to influenza versus controls,[1]; six weeks post-vaccine,higher levels
same,viral DNA replication,[2],suppressed
same,patients with reduced levels of serum HBV DNA,hepatitis B virus (HBV); pooled THNα1 (5) and TF-5 (2) patients,6 of the 7
same,patients initially positive for serum HBsAg who subsequently cleared this antigen,hepatitis B virus (HBV); pooled THNα1 and TF-5 patients,5 of 6
same,effect on natural killer-cell activity,[3],synergistic effect
same,T-cell numbers,[4]; [7],no increase
same,radiation-suppressed immune function,[4]; [7],some restoration
same,relapse-free survival and overall survival versus placebo group,"[4]; 900 μgrams/m^2 subcutaneously twice weekly, or daily for two weeks then twice weekly, both treatment groups",greater
α-interferon,side effects,[5]; 1 MU/day,virtually absent
same,patients who improved their serum alanine transaminase (ALT) levels within one month of starting therapy,"[5]; 5 MU daily in seven patients, 1 MU daily in three patients, ten patients",eight of ten
same,side effects,[5]; 5 MU/day dose,common
same,degree of portal inflammation and loss of parenchymal hepatocytic necrosis in post-treatment liver biopsies,[5]; three patients with post-treatment liver biopsies,marked improvement
same,mean serum ALT and histological features of the liver,"chronic HCV infection; 2 MU subcutaneously three times weekly for six months, 21 patients",improved significantly
same,other patients with a decrease in mean ALT of more than 50%,"chronic HCV infection; 2 MU subcutaneously three times weekly for six months, number of patients",three
same,complete response (decline in mean serum ALT to the normal range during therapy),"chronic HCV infection; 2 MU subcutaneously three times weekly for six months, ten of 21 patients",48%
same,patients still with normal ALT values six to twelve months after discontinuation of therapy,"chronic HCV infection; 2 MU three times weekly for six months, two patients",10%
same,relapse within six months after the completion of treatment,[6]; 1 MU,44%
same,responded to treatment (serum ALT),"[6]; 1 MU three times weekly for 24 weeks, nine of sixteen patients",56%
same,relapse within six months after the completion of treatment,[6]; 3 MU,51%
same,liver histology (regression of lobular and periportal inflammation),[6]; 3 MU three times weekly for 24 weeks,histologic improvement
same,serum ALT level became completely normal,"[6]; 3 MU three times weekly for 24 weeks, 22 of the 26 patients who responded",85%
same,proportion of patients with normal ALT levels at 24 weeks,chronic NANB hepatitis; 1 MU group,45%
same,proportion of patients with normal ALT levels at week 48,chronic NANB hepatitis; 1 MU group,20%
same,mean serum ALT levels during the 24 week treatment period,chronic NANB hepatitis; 1 MU three times a week,decreased
same,proportion of patients with normal ALT levels at 24 weeks,chronic NANB hepatitis; 3 MU group,39%
same,proportion of patients with normal ALT levels at week 48,chronic NANB hepatitis; 3 MU group,28%
same,decrease of mean serum ALT levels during the 24 week treatment period,chronic NANB hepatitis; 3 MU three times a week,statistically significant
same,relapse in disease activity among responders when interferon was stopped,chronic NANB hepatitis; fraction of the responders,approximately half
same,severity of histological changes in repeat liver biopsy specimens,chronic NANB hepatitis; higher dose group (3 MU),significant decrease
same,severity of histological changes in repeat liver biopsy specimens,chronic NANB hepatitis; lower dose group (1 MU),not in the lower dose group
